Tests used:
morningglory = assay: Test A pre-/postemergence herbicide test; format: in vivo, Ipomoea spp.
Procedure, shortened: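 Visual injury scores on a 0–100 scale (100 = complete control) taken about ten days post-treatment in greenhouse against untreated controls; dash means no result. Treatments: preemergence soil spray and postemergence spray to runoff on one- to two-leaf plants 2 to 10 cm tall, surfactant-containing formulation.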

bermudagrass = assay: Test C pre-/postemergence herbicide test; format: in vivo, Cynodon dactylon
Procedure, shortened: (§1)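 Visual ratings on a 0–100 scale (100 = complete control) made versus untreated controls after 12 to 14 greenhouse days. Test chemicals, formulated in surfactant-containing non-phytotoxic solvent, applied preemergence to planted seeds or postemergence to 1- to 4-leaf plants (2 to 18 cm).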

woolly cupgrass = assay: Test C pre-/postemergence herbicide test; format: in vivo, Eriochloa villosa
Procedure, shortened: as §1

giant foxtail = assay: Test C pre-/postemergence herbicide test; format: in vivo, Setaria faberi
Procedure, shortened: as §1

yellow nutsedge = assay: Test C pre-/postemergence herbicide test; format: in vivo, Cyperus esculentus
Procedure, shortened: as §1

[1] = system: common (oilseed) sunflower; assay: Test C pre-/postemergence herbicide test; format: in vivo, Helianthus annuus; conditions: for Plant response rating, Sunflower / Plant response rating (0 = no effect, 100 = complete control), Sunflower: preemergence
Procedure, shortened: as §1

velvetleaf = assay: Test C pre-/postemergence herbicide test; format: in vivo, Abutilon theophrasti
Procedure, shortened: as §1

[2] = Postemergence, 500 g ai/ha, 0 to 100 scale, 0 no effect, 100 complete control
[3] = Postemergence, 2000 g ai/ha, 0 to 100 scale, 0 no effect, 100 complete control
[4] = Preemergence, 500 g ai/ha, visual rating, 0 to 100 scale (0 no effect, 100 complete control)
[5] = 125 g ai/ha, scale 0 (no effect) to 100 (complete control), visual, 12 to 14 days, preemergence
[6] = 250 g ai/ha, scale 0 to 100 (0 no effect, 100 complete control), visual, 12 to 14 days, preemergence
[7] = Preemergence, 500 g ai/ha, scale 0 to 100, 0 no effect, 100 complete control
[8] = 62 g ai/ha, preemergence, scale 0 to 100
[9] = 125 g ai/ha, scale 0 (no effect) to 100 (complete control), visual, 12 to 14 days
[10] = Preemergence, 2000 g ai/ha, 0 to 100 scale, 0 no effect, 100 complete control
[11] = 31 g ai/ha, preemergence, scale 0 to 100
[12] = Postemergence, 125 g ai/ha, scale 0 to 100, 0 no effect, 100 complete control
[13] = postemergence, 62 g ai/ha, scale 0 to 100
[14] = postemergence, 125 g ai/ha, scale 0 to 100
[15] = Postemergence, 250 g ai/ha, scale 0 to 100, 0 no effect, 100 complete control

SMILES	Plant response rating, Morningglory (morningglory; [3])	Morningglory plant response rating (morningglory; [4])	Plant response rating, Bermudagrass (bermudagrass; [5])	Plant response rating, Bermudagrass (bermudagrass; [6])	Plant response rating, Cupgrass, Woolly (woolly cupgrass; [5])	Plant response rating, Cupgrass, Woolly (woolly cupgrass; [6])	Plant response rating, Foxtail, Giant (giant foxtail; [5])	Plant response rating, Foxtail, Giant (giant foxtail; [6])	Plant response rating, Nutsedge, Yellow (yellow nutsedge; [5])	Plant response rating, Sunflower [1, 9]	Plant response rating, Velvetleaf (velvetleaf; [5])	Plant response rating, Morningglory (morningglory; [2])	Morningglory plant response rating (morningglory; [10])	Plant response rating (0 = no effect, 100 = complete control), Bermudagrass (bermudagrass; 62 g ai/ha, preemergence)	Plant response rating, Bermudagrass (bermudagrass; [12])	Plant response rating (0 = no effect, 100 = complete control), Cupgrass, Woolly (woolly cupgrass; 62 g ai/ha, preemergence)	Plant response rating, Cupgrass, Woolly (woolly cupgrass; [12])	Plant response rating, Cupgrass, Woolly (woolly cupgrass; [13])	Plant response rating (0 = no effect, 100 = complete control), Foxtail, Giant (giant foxtail; 62 g ai/ha, preemergence)	Plant response rating, Foxtail, Giant (giant foxtail; [12])	also measured
CCN(CC)C(=O)c1ccnc(NC(=O)c2cc(C(C)(C)C)nn2CC)c1 [Compound 153]	85	10	95	95	0	0	0	0	0	0	20										Morningglory plant response rating (morningglory; [2]): 35; Morningglory plant response rating (morningglory; Preemergence, 2000 g ai/ha, visual rating, 0 to 100 scale (0 no effect, 100 complete control)): 55; Plant response rating, Bermudagrass (bermudagrass; 62 g ai/ha, preemergence, scale 0 to 100, 0 no effect, 100 complete control): 70; Bermudagrass plant response rating (bermudagrass; [7]): 100; Plant response rating, Cupgrass, Woolly (woolly cupgrass; [8]): 0; Cupgrass, Woolly plant response rating (woolly cupgrass; [7]): 60; Plant response rating, Foxtail, Giant (giant foxtail; [8]): 0; Foxtail, Giant plant response rating (giant foxtail; [7]): 0; Plant response rating, Nutsedge, Yellow (yellow nutsedge; [8]): 0; Nutsedge, Yellow plant response rating (yellow nutsedge; [7]): 45; Plant response rating, Sunflower ([1]; 62 g ai/ha, scale 0 to 100): 0; Sunflower plant response rating [1, 7]: 0; Plant response rating, Velvetleaf (velvetleaf; [8]): 0; Velvetleaf plant response rating (velvetleaf; [7]): 100
CCNC(=O)c1cccc(NC(=O)c2cc(C(C)(C)C)nn2CCF)c1 [Compound 35]	10	25	100		20		30		0	10	100	10	85	90	20	10	60	40	20	40	Plant response rating, Bermudagrass (bermudagrass; 16 g ai/ha, scale 0 to 100, 0 no effect, 100 complete control, last section of Table C (species set of preemergence test)): 0; Plant response rating, Bermudagrass (bermudagrass; [11]): 30; Plant response rating, Bermudagrass (bermudagrass; postemergence, 16 g ai/ha, scale 0 to 100): 0; Plant response rating, Bermudagrass (bermudagrass; [13]): 0; Plant response rating, Cupgrass, Woolly (woolly cupgrass; [11]): 10; Plant response rating, Foxtail, Giant (giant foxtail; [11]): 0; Plant response rating, Foxtail, Giant (giant foxtail; [13]): 40; Plant response rating, Nutsedge, Yellow (yellow nutsedge; 16 g ai/ha, scale 0 to 100, last section of Table C, preemergence): 0; Plant response rating, Nutsedge, Yellow (yellow nutsedge; [11]): 0; Plant response rating (0 = no effect, 100 = complete control), Nutsedge, Yellow (yellow nutsedge; 62 g ai/ha, preemergence): 0; Plant response rating, Nutsedge, Yellow (yellow nutsedge; [14]): 0; Plant response rating, Nutsedge, Yellow (yellow nutsedge; [13]): 0; Plant response rating, Sunflower ([1]; 31 g ai/ha, scale 0 to 100): 10; Plant response rating (0 = no effect, 100 = complete control), Sunflower ([1]; 62 g ai/ha): 10; Plant response rating, Velvetleaf (velvetleaf; [11]): 0; Plant response rating (0 = no effect, 100 = complete control), Velvetleaf (velvetleaf; 62 g ai/ha, preemergence): 100; Plant response rating, Velvetleaf (velvetleaf; [14]): 80; Plant response rating, Velvetleaf (velvetleaf; [13]): 70
CCn1nc(C(C)(C)C)cc1C(=O)Nc1cccc(C(=O)NC2CC2)c1 [Compound 44]	45	10		20	10	10	10	10	0	0	70	15	30	0	90	0	60	50	10	30	Plant response rating, Cupgrass, Woolly (woolly cupgrass; [15]): 60; Plant response rating, Foxtail, Giant (giant foxtail; [15]): 50; Plant response rating, Foxtail, Giant (giant foxtail; [13]): 30; Plant response rating (0 = no effect, 100 = complete control), Nutsedge, Yellow (yellow nutsedge; 62 g ai/ha, preemergence): 0; Plant response rating, Nutsedge, Yellow (yellow nutsedge; [6]): 0; Plant response rating, Nutsedge, Yellow (yellow nutsedge; [15]): 20; Plant response rating, Nutsedge, Yellow (yellow nutsedge; [13]): 20; Plant response rating (0 = no effect, 100 = complete control), Sunflower ([1]; 62 g ai/ha): 0; Plant response rating, Sunflower ([1]; 250 g ai/ha, scale 0 to 100 (0 no effect, 100 complete control), visual, 12 to 14 days): 0; Plant response rating (0 = no effect, 100 = complete control), Velvetleaf (velvetleaf; 62 g ai/ha, preemergence): 70; Plant response rating, Velvetleaf (velvetleaf; [6]): 70; Plant response rating, Velvetleaf (velvetleaf; [13]): 60
